Patent publication US5391540A, “Substituted pyridine compounds” (Rohm and Haas Company, priority 1993, dated 1995)

What was measured:
Type in all cases: in vivo
Dobr = test: plant injury after spraying emerged plants (Table D)
Excerpt: Topsoil (silt loam) is sieved through a screen having 1.27 cm openings. In some of the tests the soil was mixed with fertilizer (1225 g/cu. m of 12/5/9 containing isobutylidene diurea), while in other tests the fertilizer was omitted. This mixture is steam sterilized and then placed in aluminum pans 6.985 cm deep having ten holes in the bottom each 0.635 cm in diameter. The soil mixture is compacted to a depth of 1.27 cm. from the top of the pan. A predetermined number of seeds of each of several dicotyledonous and monocotyledonous annual plant species and/or vegetative propagules for the perennial plant species are placed on the soil and pressed into the soil surface. The seeds and/or vegetative propagules are covered with 1.27 cm of a mixture of 50% topsoil and 50% of a mixture of Canadian sphagnum peat moss, vermiculite and a wetting agent. The pans are then placed on a capillary mat on a greenhouse bench and subirrigated as needed. After the plants reach the desired stage (9 to 14 days, 1 to 3 true leaf stage), each pan (except the control pans) is removed to a spraying chamber and sprayed by means of an atomizer, operating at a spray pressure of 170.3 kPa ([…]) at the application rates noted in Table D. In the spray solution is an amount of an emulsifying agent mixture (35% butylamine salt of dodecylbenzenesulfonic acid and 65% tall oil condensed with ethylene oxide in the ratio of 11 mols of ethylene oxide/mol of tall oil) to give a spray solution or suspension. The spray solution or suspension contains a sufficient amount of the candidate chemical in order to give application rates of the active ingredient corresponding to those shown in Table D below while applying a total amount of solution or suspension equivalent to 1870 L/Ha (200 gallons/acre). The pans are returned to the greenhouse and watered as before and the injury to the plants as compared to the control pans is observed at approximately 10-14 days (usually 11 days).
(§1) In the following Table D the legends used to identify the plant species are the same as those used in the preceding Table B.

Whez = test: as above; parameters: scale not given here
Excerpt: (§2) Topsoil (silt loam) is sieved through a screen having 1.27 cm openings. […] This mixture is steam sterilized and then placed in aluminum pans 6.985 cm deep having ten holes in the bottom each 0.635 cm in diameter. The soil mixture is compacted to a depth of 1.27 cm. from the top of the pan. A predetermined number of seeds of each of several dicotyledonous and monocotyledonous annual plant species and/or vegetative propagules for the perennial plant species are placed on the soil and pressed into the soil surface. The seeds and/or vegetative propagules are covered with 1.27 cm of a mixture of 50% topsoil and 50% of a mixture of Canadian sphagnum peat moss, vermiculite and a wetting agent. The pans are then placed on a capillary mat on a greenhouse bench and subirrigated as needed.
as §1

Bygr = test: as above; parameters: scale not given here
Excerpt: as §2, §1

Prmi = test: as above; parameters: scale not given here
Excerpt: as §2, §1

Lacg = test: as above; parameters: scale not given here
Excerpt: as §2, §1

Sobe = test: as above; parameters: scale not given here
Excerpt: as §2, §1

Rice = test: as above; parameters: scale not given here
Excerpt: as §2, §1

Grso = test: as above; parameters: scale not given here
Excerpt: as §2, §1

Mogl = test: as above; parameters: scale not given here
Excerpt: as §2, §1

Grft = test: as above; parameters: scale not given here
Excerpt: as §2, §1

Cocklebur = test: Pre-emergent herbicidal activity (Table A); settings: Xanthium strumarium, pre-emergence, Cobu, 11.2 kg/ha, 10-14 days, read-out: herbicidal rating (% inhibition)
Procedure, shortened: (§3)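 Percent inhibition per species, scored on a rating scale, after pre-emergent soil incorporation: test compound in acetone or water carrier mixed into cover soil, layered over seeded topsoil or vegetative propagules.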

Morningglory = test: Pre-emergent herbicidal activity (Table A); settings: Ipomoea, pre-emergence, Mogl, 11.2 kg/ha, 10-14 days, read-out: herbicidal rating (% inhibition)
Procedure, shortened: as §3

Downy Brome = test: Pre-emergent herbicidal activity (Table A); settings: Bromus tectorum, pre-emergence, Dobr, 11.2 kg/ha, 10-14 days, read-out: herbicidal rating (% inhibition)
Procedure, shortened: as §3

Velvetleaf = test: Pre-emergent herbicidal activity (Table A); settings: Abutilon theophrasti, pre-emergence, Vele, 11.2 kg/ha, 10-14 days, read-out: herbicidal rating (% inhibition)
Procedure, shortened: as §3

Yellow Nutsedge = test: Pre-emergent herbicidal activity (Table A); settings: Cyperus, pre-emergence, Yens, 11.2 kg/ha, 10-14 days, read-out: herbicidal rating (% inhibition)
Procedure, shortened: as §3

Barnyardgrass = test: Pre-emergent herbicidal activity (Table A); settings: Echinochloa crus-galli, pre-emergence, Bygr, 11.2 kg/ha, 10-14 days, read-out: herbicidal rating (% inhibition)
Procedure, shortened: as §3

COC(=O)c1c(O)nc(C(F)(F)F)c(C(=O)OC)c1CC(C)C [Compound 1, 3,5-pyridinedicarboxylic acid, 2-hydroxy-4-(2-methylpropyl)-6-(trifluoromethyl)-, dimethyl ester]
0 to 24%: inhibition at 11200 g/ha (Cocklebur) | inhibition at 11200 g/ha (Morningglory) | inhibition at 11200 g/ha (Downy Brome) | inhibition at 11200 g/ha (Velvetleaf) | inhibition at 11200 g/ha (Yellow Nutsedge) | inhibition at 11200 g/ha (Barnyardgrass)
2: plant injury rating, Prmi (Prmi; 1.1210 kg/ha) | plant injury rating, Sobe (Sobe; 0.2803 kg/ha)
3: plant injury rating, Prmi (Prmi; 5.3808 kg/ha) | plant injury rating, Lacg (Lacg; 0.0701 kg/ha) | plant injury rating, Lacg (Lacg; 1.1210 kg/ha) | plant injury rating, Lacg (Lacg; 5.3808 kg/ha) | plant injury rating, Sobe (Sobe; 5.3808 kg/ha)
0: plant injury rating, Dobr (Dobr; 0.0701 kg/ha) | plant injury rating, Dobr (Dobr; 0.2803 kg/ha) | plant injury rating, Dobr (Dobr; 1.1210 kg/ha) | plant injury rating, Dobr (Dobr; 5.3808 kg/ha) | plant injury rating, Whez (Whez; 0.0701 kg/ha) | plant injury rating, Whez (Whez; 0.2803 kg/ha) | plant injury rating, Whez (Whez; 1.1210 kg/ha) | plant injury rating, Whez (Whez; 5.3808 kg/ha) | plant injury rating, Bygr (Bygr; 0.0701 kg/ha) | plant injury rating, Prmi (Prmi; 0.0701 kg/ha) | plant injury rating, Prmi (Prmi; 0.2803 kg/ha) | plant injury rating, Rice (Rice; 0.0701 kg/ha) | plant injury rating, Rice (Rice; 0.2803 kg/ha) | plant injury rating, Rice (Rice; 1.1210 kg/ha) | plant injury rating, Grso (Grso; 0.0701 kg/ha) | plant injury rating, Grso (Grso; 0.2803 kg/ha) | plant injury rating, Grso (Grso; 1.1210 kg/ha) | plant injury rating, Grft (Grft; 0.0701 kg/ha) | plant injury rating, Grft (Grft; 0.2803 kg/ha)
1: plant injury rating, Bygr (Bygr; 1.1210 kg/ha) | plant injury rating, Sobe (Sobe; 1.1210 kg/ha) | plant injury rating, Mogl (Mogl; 1.1210 kg/ha)

COC(=O)c1c(OC)nc(C(F)(F)Cl)c(C(=O)OC)c1CC(C)C [Compound 30, 3,5-pyridinedicarboxylic acid, 2-(chlorodifluoromethyl)-6-methoxy-4-(2-methylpropyl)-, dimethyl ester]
2: plant injury rating, Bygr (Bygr; 2.8025 kg/ha) | plant injury rating, Lacg (Lacg; 2.8025 kg/ha) | plant injury rating, Lacg (Lacg; 5.6050 kg/ha) | plant injury rating, Mogl (Mogl; 11.2100 kg/ha) | plant injury rating, Grft (Grft; 2.8025 kg/ha) | plant injury rating, Grft (Grft; 5.6050 kg/ha)
75 to 100%: inhibition at 11200 g/ha (Morningglory) | inhibition at 11200 g/ha (Downy Brome) | inhibition at 11200 g/ha (Velvetleaf) | inhibition at 11200 g/ha (Barnyardgrass)
0: plant injury rating, Dobr (Dobr; 0.5605 kg/ha) | plant injury rating, Dobr (Dobr; 1.1210 kg/ha) | plant injury rating, Dobr (Dobr; 2.8025 kg/ha) | plant injury rating, Dobr (Dobr; 5.6050 kg/ha) | plant injury rating, Dobr (Dobr; 8.4075 kg/ha) | plant injury rating, Dobr (Dobr; 11.2100 kg/ha) | plant injury rating, Whez (Whez; 0.5605 kg/ha) | plant injury rating, Whez (Whez; 1.1210 kg/ha) | plant injury rating, Whez (Whez; 2.8025 kg/ha) | plant injury rating, Whez (Whez; 5.6050 kg/ha) | plant injury rating, Whez (Whez; 8.4075 kg/ha) | plant injury rating, Whez (Whez; 11.2100 kg/ha) | plant injury rating, Bygr (Bygr; 0.5605 kg/ha) | plant injury rating, Bygr (Bygr; 1.1210 kg/ha) | plant injury rating, Prmi (Prmi; 0.5605 kg/ha) | plant injury rating, Prmi (Prmi; 1.1210 kg/ha) | plant injury rating, Prmi (Prmi; 5.6050 kg/ha) | plant injury rating, Prmi (Prmi; 8.4075 kg/ha) | plant injury rating, Prmi (Prmi; 11.2100 kg/ha) | plant injury rating, Lacg (Lacg; 1.1210 kg/ha) | plant injury rating, Sobe (Sobe; 0.5605 kg/ha) | plant injury rating, Rice (Rice; 0.5605 kg/ha) | plant injury rating, Rice (Rice; 1.1210 kg/ha) | plant injury rating, Rice (Rice; 2.8025 kg/ha) | plant injury rating, Rice (Rice; 5.6050 kg/ha) | plant injury rating, Rice (Rice; 8.4075 kg/ha) | plant injury rating, Rice (Rice; 11.2100 kg/ha) | plant injury rating, Grso (Grso; 0.5605 kg/ha) | plant injury rating, Grso (Grso; 1.1210 kg/ha) | plant injury rating, Grft (Grft; 1.1210 kg/ha)
1: plant injury rating, Bygr (Bygr; 5.6050 kg/ha) | plant injury rating, Bygr (Bygr; 8.4075 kg/ha) | plant injury rating, Bygr (Bygr; 11.2100 kg/ha) | plant injury rating, Prmi (Prmi; 2.8025 kg/ha) | plant injury rating, Lacg (Lacg; 0.5605 kg/ha) | plant injury rating, Lacg (Lacg; 8.4075 kg/ha) | plant injury rating, Lacg (Lacg; 11.2100 kg/ha) | plant injury rating, Sobe (Sobe; 1.1210 kg/ha) | plant injury rating, Sobe (Sobe; 2.8025 kg/ha) | plant injury rating, Sobe (Sobe; 5.6050 kg/ha) | plant injury rating, Sobe (Sobe; 8.4075 kg/ha) | plant injury rating, Sobe (Sobe; 11.2100 kg/ha) | plant injury rating, Grso (Grso; 2.8025 kg/ha) | plant injury rating, Grso (Grso; 5.6050 kg/ha) | plant injury rating, Grso (Grso; 8.4075 kg/ha) | plant injury rating, Grso (Grso; 11.2100 kg/ha) | plant injury rating, Mogl (Mogl; 0.5605 kg/ha) | plant injury rating, Mogl (Mogl; 1.1210 kg/ha) | plant injury rating, Mogl (Mogl; 2.8025 kg/ha) | plant injury rating, Mogl (Mogl; 5.6050 kg/ha) | plant injury rating, Mogl (Mogl; 8.4075 kg/ha) | plant injury rating, Grft (Grft; 0.5605 kg/ha) | plant injury rating, Grft (Grft; 8.4075 kg/ha) | plant injury rating, Grft (Grft; 11.2100 kg/ha)
50 to 74%: inhibition at 11200 g/ha (Yellow Nutsedge)
25 to 49%: inhibition at 11200 g/ha (Cocklebur)
